# Data taken from paper PMC9367672, “In vitro differences in toddalolactone metabolism in various species and its effect on cytochrome P450 expression” (Pharmaceutical Biology, 2022).
# Assays:
# CYP3A5 = CYP3A5 (Homo sapiens, UniProt P20815); set-up: purchased Corning Life Sciences (Corning, MA); host or cells: Saccharomyces cerevisiae; method as in Wright et al. [2020]; settings: at 1.8 μM; ref Wright et al. [2020]; cited from earlier work
# HLMs = test: Chemical inhibition assay: formation of P4 from toddalolactone in HLMs; format: in vitro ADME, human; settings: HLMs with toddalolactone and NADPH-generating system; ketoconazole 1 μM, clobetasol propionate 1.8 μM, quinidine 10 μM; vs no inhibitor
# Experimental: All incubation assays were completed in triplicate. The data are presented as mean ± standard deviation (SD).
# Specific inhibitors for P450 isoforms were used to explore the contribution of CYP isoforms to the biotransformation of toddalolactone. […] In brief, toddalolactone was incubated with HLMs and an NADPH-generating system in the presence and absence (control) of the aforementioned specific inhibitors.
# [1] = substrate: COc1cc2oc(=O)ccc2c(OC)c1C[C@@H](O)C(C)(C)O; test: cells, lysate or membranes named; settings: P4 formation, toddalolactone 1–200 μM, pH 7.4, 37.0 °C
# Experimental: The CYP reaction system (200 μL) consisted of 0.1 M potassium phosphate buffer (pH 7.4), an NADPH-generating system (1 mM NADPH, 10 mM G-6-P, 1 unit/mL G-6-PD, 4 mM MgCl2), and liver microsomes or recombinant human microsomes (supersomes). Each of the in vitro enzymatic assays using liver microsomes was linear with respect to incubation time and amount of protein. After a pre-incubation at 37 °C for 3 min, the reactions were initiated by adding NADP^+. After incubating for 60 min, the reactions were quenched by adding 200 μL of ice-cold acetonitrile. Samples were centrifuged at 18,000 g for 15 min at 4 °C and 10 μL of supernatant was analyzed using an HPLC system. NADPH or CYP enzyme sources were not used in the control group to ensure that the metabolic reactions were CYP- and NADPH-dependent. All incubation assays were completed in triplicate. The data are presented as mean ± standard deviation (SD).
# The enzyme kinetics of toddalolactone in oxidative metabolism and glucuronidation were determined by incubating liver microsomes (0.2 mg/mL) or CYPs (15 nM) with different concentrations of toddalolactone (1–200 μM). The kinetic parameters including Km and Vmax were obtained by fitting the experimental data to the Michaelis–Menten equation (Equation (1)), biphasic kinetics equation (Equation (2)), or substrate inhibition equation (Equation (3)) (He et al. [2018]), and the results were graphically represented on Eadie–Hofstee plots. The in vitro intrinsic clearance (CLint) was calculated based on the Vmax/Km ratio. Metabolites were quantified using the standard curve for toddalolactone because of the absence of metabolite standards. All incubations were repeated in three independent experiments. Kinetic constants were expressed with mean ± SD: (1) V=Vmax×[S]/Km+[S] (2) V=Vmax1×[S]/Ks1+[S]+Vmax2×[S]/Ks2+[S] […]
molecule,measurement,setting,value
CCC(=O)O[C@]1(C(=O)CCl)[C@@H](C)C[C@H]2[C@@H]3CCC4=CC(=O)C=C[C@]4(C)[C@@]3(F)[C@@H](O)C[C@@]21C [clobetasol propionate],inhibition of CYP3A5,CYP3A5,90%
same,inhibition of formation of P4,HLMs,~40%
CYP1A1 (Homo sapiens) (protein) MLFPISMSATEFLLASVIFCLVFWVIRASRPQVPKGLKNPPGPWGWPLIGHMLTLGKNPHLALSRMSQQYGDVLQIRIGSTPVVVLSGLDTIRQALVRQGDDFKGRPDLYTFTLISNGQSMSFSPDSGPVWAARRRLAQNGLKSFSIASDPASSTSCYLEEHVSKEAEVLISTLQELMAGPGHFNPYRYVVVSVTNVICAICFGRRYDHNHQELLSLVNLNNNFGEVVGSGNPADFIPILRYLPNPSLNAFKDLNEKFYSFMQKMVKEHYKTFEKGHIRDITDSLIEHCQEKQLDENANVQLSDEKIINIVLDLFGAGFDTVTTAISWSLMYLVMNPRVQRKIQEELDTVIGRSRRPRLSDRSHLPYMEAFILETFRHSSFVPFTIPHSTTRDTSLKGFYIPKGRCVFVNQWQINHDQKLWVNPSEFLPERFLTPDGAIDKVLSEKVIIFGMGKRKCIGETIARWEVFLFLAILLQRVEFSVPLGVKVDMTPIYGLTMKHACCEHFQMQLRS,kcat,[1]; other: recombinant CYP1A1 (15 nM),0.76 ± 0.03 pmol/min/nmol CYP
CYP3A5 (Homo sapiens) (protein) MDLIPNLAVETWLLLAVSLVLLYLYGTRTHGLFKRLGIPGPTPLPLLGNVLSYRQGLWKFDTECYKKYGKMWGTYEGQLPVLAITDPDVIRTVLVKECYSVFTNRRSLGPVGFMKSAISLAEDEEWKRIRSLLSPTFTSGKLKEMFPIIAQYGDVLVRNLRREAEKGKPVTLKDIFGAYSMDVITGTSFGVNIDSLNNPQDPFVESTKKFLKFGFLDPLFLSIILFPFLTPVFEALNVSLFPKDTINFLSKSVNRMKKSRLNDKQKHRLDFLQLMIDSQNSKETESHKALSDLELAAQSIIFIFAGYETTSSVLSFTLYELATHPDVQQKLQKEIDAVLPNKAPPTYDAVVQMEYLDMVVNETLRLFPVAIRLERTCKKDVEINGVFIPKGSMVVIPTYALHHDPKYWTEPEEFRPERFSKKKDSIDPYIYTPFGTGPRNCIGMRFALMNMKLALIRVLQNFSFKPCKETQIPLKLDTQGLLQPEKPIVLKVDSRDGTLSGE,kcat,[1]; other: recombinant CYP3A5 (15 nM),0.68 ± 0.04 pmol/min/nmol CYP
